Laboratory results as given in patent US20130071415A1, “Heterocyclic Compounds as Janus Kinase Inhibitors” (BioCryst Pharmaceuticals, Inc., priority 2010, published 2013).
Counter-ions that a name gives are not always drawn.

c1cc2c(-c3cn[nH]c3)ncnn2c1 (as salt: HCl) [Compound 13c, 4-(1H-Pyrazol-4-yl)pyrrolo[1,2-f][1,2,4]triazine]
melting point: 245.8 °C
